Experimental data published in US5393785A, “Therapeutic antiestrogens” (Endorecherche, Inc., priority 1992, dated 1995).

Columns and labels:
[1] = system: rat uterine cytosol estrogen receptor; assay: competition binding on rat uterine cytosol estrogen receptor with [3H]estradiol; settings: incubation at 25° C. for 3 hours; [3H]estradiol competition
Description: FIG. 1 illustrates a competition binding assay of the affinity of estradiol, diethylstilbestrol, ICI 164384 (Wakeling A. E. and Bowler J., 1987; J. Endocr. 112, R7-R10) and EM-142 (an antiestrogen in accordance with the invention synthesized in example 1, herein) for the rat uterine cytosol receptor (Asselin et al., 1978; J. Steroid Biochem. 9:1079-1082).
EM-142 from example 1 was tested by competition binding on the rat uterine cytosol estrogen receptor with [^3 H]estradiol according to Asselin et al. (1976) procedure. […] (Incubation was performed at 25° C. for 3 hours).

[2] = system: estradiol-induced stimulation of uterine weight; assay: inhibition of estradiol-induced stimulation of uterine weight in ovariectomized mice; type: in vivo, Balb/c mice
Description: FIG. 2 illustrates the effect of the indicated doses of EM-142 injected twice daily (b.i.d.) on uterine weight (mg) in adult female ovariectomized Balb/C mice treated for 4.5 days in the presence or absence of simultaneous treatment with 17β-estradiot (0.01 μg, b.i.d.). […] EM-142, and/or estradiol contained in ethanol were injected subcutaneously in the appropriate groups in a solution of 0.9% (w/v) sodium chloride and 1% (w/v) gelatin at different concentrations in 0.2 ml for EM-142, twice daily, starting on the day of ovariectomy for a total of 9 injections. Estradiol was injected at the dose of 0.01 μg in 0.2 ml, twice daily, starting on the morning after ovariectomy for a total of 8 injections. After sacrifice, the uteri were rapidly removed, freed from fat and connective tissue and weighted. Results shown in FIG. 2 are the means ± SEM of groups of 9-10 mice.

advanced breast cancer = settings: cited from earlier work

SMILES	binding potency compared with ICI 164384 [1]	binding potency relative to 17β-estradiol (times less potent) [1] [times]	effect on E2-induced uterine growth at 0.3 μg ([2]; 0.3 μg s.c. twice daily, 9 injections, estradiol 0.01 μg b.i.d.)	effect on estrogenic action at 20 μg ([2]; 20 μg s.c. twice daily, 9 injections, estradiol 0.01 μg b.i.d.)	estrogenic (agonistic) effect on uterine weight ([2]; EM-142 in absence of estradiol, s.c. twice daily)	dose giving half-maximal inhibitory effect on E2-induced uterine growth ([2]; s.c. twice daily, 9 injections, estradiol 0.01 μg b.i.d.)	women patients treated with remission of advanced breast cancer (advanced breast cancer)
CCCCN(C)C(=O)CCCCCCCCCCC(=C(CC)c1ccc(O)cc1)c1ccc(O)cc1 [EM-142, N-butyl,N-methyl-12,13-Bis (4-hydroxyphenyl)-12-pentadecenoic amide]	more potent than the antiestrogen ICI 164384	3	significant inhibitory effect	complete reversal of estrogenic action	no estrogenic effect on uterine weight	approximately 3 μg	–
CC/C(=C(\c1ccccc1)c1ccc(OCCN(C)C)cc1)c1ccccc1 [Tamoxifen]	–	–	–	–	–	–	about 30%
